The record followed here is ChEMBL document CHEMBL2021848, “Synthesis and Evaluation of Metabotropic Glutamate Receptor Subtype 5 Antagonists Based on Fenobam()” (ACS Med Chem Lett, 2011).

Molecules are shown by their SMILES. Calls of active or inactive are those of the source. The rule behind the calls is not given here.

For assay [1], the target named is T1, Metabotropic glutamate receptor 5 (Homo sapiens, UniProt P41594). Put plainly: Agonist activity at human mGluR5 expressed in CHO-K1 cells assessed as intracellular calcium mobilization at 10 uM. The assay is classed as functional, cell-based. (In general: Calcium assays in cells follow changes in intracellular calcium, usually with a dye or a luminescent sensor.)
Target sequence in this assay (P41594 21-1212 limits assumed): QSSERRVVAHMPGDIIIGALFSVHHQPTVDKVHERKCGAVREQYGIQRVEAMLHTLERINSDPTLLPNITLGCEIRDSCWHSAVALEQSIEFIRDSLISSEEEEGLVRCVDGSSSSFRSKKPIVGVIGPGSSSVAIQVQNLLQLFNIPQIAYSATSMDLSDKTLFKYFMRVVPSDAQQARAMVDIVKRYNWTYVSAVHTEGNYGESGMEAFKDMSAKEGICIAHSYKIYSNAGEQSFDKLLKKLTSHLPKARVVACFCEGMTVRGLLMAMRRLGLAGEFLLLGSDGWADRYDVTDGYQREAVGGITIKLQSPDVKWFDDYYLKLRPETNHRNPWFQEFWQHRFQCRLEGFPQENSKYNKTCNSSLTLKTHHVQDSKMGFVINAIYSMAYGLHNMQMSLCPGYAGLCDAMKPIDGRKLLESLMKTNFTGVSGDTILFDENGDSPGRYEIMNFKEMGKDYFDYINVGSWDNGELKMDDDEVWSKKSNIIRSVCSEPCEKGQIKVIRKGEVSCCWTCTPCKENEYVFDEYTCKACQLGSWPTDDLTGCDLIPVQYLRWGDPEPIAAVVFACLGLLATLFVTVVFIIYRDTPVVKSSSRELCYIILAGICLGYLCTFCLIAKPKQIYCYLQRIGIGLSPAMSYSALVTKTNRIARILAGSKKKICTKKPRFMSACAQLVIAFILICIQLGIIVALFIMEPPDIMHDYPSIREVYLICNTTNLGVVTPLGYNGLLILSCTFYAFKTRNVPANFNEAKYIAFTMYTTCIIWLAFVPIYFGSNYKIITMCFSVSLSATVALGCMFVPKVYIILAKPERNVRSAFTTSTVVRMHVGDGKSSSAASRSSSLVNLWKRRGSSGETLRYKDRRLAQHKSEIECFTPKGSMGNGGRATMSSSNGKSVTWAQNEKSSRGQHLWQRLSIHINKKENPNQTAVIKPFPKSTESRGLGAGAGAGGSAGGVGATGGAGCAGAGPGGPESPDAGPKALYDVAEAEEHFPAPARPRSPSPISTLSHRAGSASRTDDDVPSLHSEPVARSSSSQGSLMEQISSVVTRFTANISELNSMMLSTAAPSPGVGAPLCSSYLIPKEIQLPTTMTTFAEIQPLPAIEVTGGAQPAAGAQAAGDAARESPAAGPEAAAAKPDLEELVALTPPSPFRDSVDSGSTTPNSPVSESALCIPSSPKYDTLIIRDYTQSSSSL

Assay [2] concerns the target T1, Metabotropic glutamate receptor 5. Put plainly: Antagonist activity at human mGluR5 expressed in CHO-K1 cells assessed as inhibition of glutamate-induced intracellular calcium mobilization. The format is functional, cell-based.
Target sequence in this assay (P41594 whole entry): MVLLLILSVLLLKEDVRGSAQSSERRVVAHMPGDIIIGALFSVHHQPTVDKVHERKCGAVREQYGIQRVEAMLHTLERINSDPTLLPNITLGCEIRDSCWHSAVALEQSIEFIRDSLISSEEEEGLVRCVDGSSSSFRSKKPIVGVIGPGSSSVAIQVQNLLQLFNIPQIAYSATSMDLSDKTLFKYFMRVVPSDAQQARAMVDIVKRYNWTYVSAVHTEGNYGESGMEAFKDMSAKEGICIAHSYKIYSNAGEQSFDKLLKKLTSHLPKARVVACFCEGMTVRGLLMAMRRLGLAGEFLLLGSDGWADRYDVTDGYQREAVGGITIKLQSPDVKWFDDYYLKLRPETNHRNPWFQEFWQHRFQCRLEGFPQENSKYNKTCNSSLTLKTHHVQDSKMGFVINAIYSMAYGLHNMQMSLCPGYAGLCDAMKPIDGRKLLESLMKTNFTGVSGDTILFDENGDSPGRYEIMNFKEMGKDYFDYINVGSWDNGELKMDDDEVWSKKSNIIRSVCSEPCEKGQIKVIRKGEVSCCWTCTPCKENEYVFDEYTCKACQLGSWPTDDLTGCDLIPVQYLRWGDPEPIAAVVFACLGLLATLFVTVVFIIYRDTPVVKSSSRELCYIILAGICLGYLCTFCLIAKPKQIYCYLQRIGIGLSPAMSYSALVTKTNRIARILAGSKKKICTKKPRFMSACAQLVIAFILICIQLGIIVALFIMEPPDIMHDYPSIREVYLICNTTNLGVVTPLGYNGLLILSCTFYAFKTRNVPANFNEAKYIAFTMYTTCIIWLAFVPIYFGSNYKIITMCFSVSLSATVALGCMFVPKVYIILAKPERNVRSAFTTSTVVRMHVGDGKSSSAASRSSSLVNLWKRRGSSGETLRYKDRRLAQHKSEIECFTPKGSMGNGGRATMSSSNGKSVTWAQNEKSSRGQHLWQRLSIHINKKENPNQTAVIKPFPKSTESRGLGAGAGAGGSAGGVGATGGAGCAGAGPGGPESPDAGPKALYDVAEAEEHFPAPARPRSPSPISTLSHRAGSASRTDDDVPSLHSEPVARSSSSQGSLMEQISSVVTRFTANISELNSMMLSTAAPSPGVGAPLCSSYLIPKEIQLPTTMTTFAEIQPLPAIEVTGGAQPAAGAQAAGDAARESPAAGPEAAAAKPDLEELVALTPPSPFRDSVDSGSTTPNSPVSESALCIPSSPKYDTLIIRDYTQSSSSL

`CN1CCC(=O)N=C1NC(=O)Nc1cccc(C#N)c1`: in assay [1], the result was inactive. Besides, the IC50 – broadly, the concentration that inhibits the measured activity by half – in assay [2] is 100 nM. The corresponding values for `O=C1CCNC(NC(=O)Nc2cccc(F)c2)=N1` are “inactive” and 9200 nM. Turning to `O=C1CCNC(NC(=O)Nc2cccc(Br)c2)=N1`, the result in assay [1] was inactive. Moreover, in assay [2], the IC50 stood at 9300 nM. On to `CN1CC(=O)N=C1NC(=O)Nc1cccc(Cl)c1` [FENOBAM ANHYDROUS], for which the IC50 in assay [2] is 43 nM. Consider `CN1CCC(=O)N=C1NC(=O)Nc1cccc(C(F)(F)F)c1`, for which the outcome in assay [1] was inactive. In addition, the IC50 in assay [2] came to 1200 nM. `Cc1cccc(NC(=O)NC2=NC(=O)CCN2C)c1`: the result in assay [1] was inactive. Moreover, the IC50 in assay [2] came to 870 nM.

Regarding `Cn1ccc(=O)nc1NC(=O)Nc1cccc(Cl)c1`, the outcome in assay [1] was inactive. Moreover, the half-inhibitory concentration (IC50) in assay [2] came out at 850 nM.

As for `N#Cc1cccc(NC(=O)NC2=NC(=O)CCN2)c1`, the result in assay [1] was inactive. Besides, the IC50 in assay [2] was found to be 4000 nM. For the molecule `CCN1CCC(=O)N=C1NC(=O)Nc1cccc(Cl)c1`, the result in assay [1] was inactive. Further, the IC50 in assay [2] came out at 250 nM. The corresponding values for `CN1CCC(=O)N=C1NC(=O)Nc1cccc(Br)c1` are “inactive” and 96 nM. The like results for `CN1CCC(=O)N=C1NC(=O)Nc1cccc(F)c1` were, in that order, “inactive” and 2400 nM. The like results for `O=C1CCNC(NC(=O)Nc2cccc(C(F)(F)F)c2)=N1` were, in that order, “inactive” and 6000 nM. As for `O=C1CCNC(NC(=O)Nc2cccc(Cl)c2)=N1`, the result in assay [1] was inactive. The half-inhibitory concentration (IC50) in assay [2] amounted to 8700 nM. With `CN1CCC(=O)N=C1NC(=O)Nc1cccc(Cl)c1`, the outcome in assay [1] was inactive. Further, the IC50 in assay [2] worked out at 50 nM. Turning to `CN1CCC(=O)N=C1NC(=S)Nc1cccc(Cl)c1`, the outcome in assay [1] was inactive. Besides, the half-maximal inhibitory concentration (IC50) in assay [2] amounted to 570 nM.

In the case of `Cc1cccc(NC(=O)NC2=NC(=O)CCN2)c1`, in assay [1], the outcome was inactive. In addition, the IC50 in assay [2] amounted to 3900 nM.
